Data taken from publication PMC10731658 (Chemical Research in Toxicology, 2023).

Experiments:
[1] = test system: HepG2 cells; test: Intracellular RONS detection with DCFH-DA fluorescent probe; assay type: cell-based, human; details: IC50 concentration
Protocol: (§1) Two different fluorescent dyes, i.e., 2,7-dichlorodihydrofluorescein diacetate (DCFH-DA, Cayman Chemicals Company, Ann Arbor, MI) and dihydroethidium (DHE, Sigma-Aldrich, St. Louis, MO) were utilized for the determination of intracellular levels of RONS after 1, 4, and 24 h of incubation with tested oxime reactivators or TBHP (positive control). Cells incubated with oxime-free DMEM represented untreated control. After the incubation, the experimental medium was removed and replaced with a solution of DCFH-DA or DHE at concentrations of 20 and 5 μmol/L, respectively. The cells were subsequently incubated at 37 °C in a CO2 incubator for 45 min. Afterward, the fluorescence intensity of each well was measured using a Spark multimode microplate reader at an excitation wavelength of 485 nm for DCFH-DA or 528 nm for the DHE probe and an emission wavelength of 535 or 590 nm, respectively. Each experiment was carried out in triplicate and repeated three independent times.
(§2) The toxicological indices IC50 were calculated from control-subtracted triplicates using nonlinear regression (four parameters) using GraphPad Prism 9 software version 9.3.0 (GraphPad Software Inc., San Diego, CA). One-way analysis of variance (ANOVA) followed by Dunnetʼs multiple comparison test was used for RONS, MDA, NP-SH, and NP-SS-NP statistical analysis by GraphPad Prism 9 software, version 9.3.0. Data are expressed as means ± standard deviation (SD) of three independent measurements (n = 3). Significant differences between oxime-treated and untreated control groups (p ≤ 0.05) were marked by an asterisk (*).

[2] = test system: HepG2 cells; test: Intracellular RONS detection with DHE fluorescent probe; assay type: cell-based, human; details: IC50 concentration
Protocol: as §1, §2

[3] = test system: HepG2 cells; details: combined exposure with TBHP (IC50 concentration); oximes about 10-fold below IC50; cited from earlier work
[4] = test system: rat plasma; details: in vivo; cited from earlier work
[5] = test system: HepG2 cells; test: Intracellular nonprotein disulfides (NP-SS-NP) by HPLC-UV; assay type: cell-based, human; details: IC50 concentration
Protocol: The culture medium was removed from a 25 cm^2 culture flask on the day of the experiment, and cells were washed twice with 3 mL of phosphate-buffered saline (PBS; GE Healthcare Life Sciences, South Logan, UT). Subsequently, 3 mL of a plain DMEM medium (negative control) and a DMEM medium containing TBHP (positive control) or individual oximes were added to each flask, and cells were incubated for 1, 4, and 24 h. The concentration of individual oxime and TBHP in the DMEM medium corresponded to the IC50 value. After incubation, the experimental medium was removed, and cells were washed with 3 mL of PBS and harvested by scraping. The resulting suspension was centrifuged at 220g and 21 °C for 5 min (Universal 320R centrifuge, Hettich, Tuttlingen, Germany). The supernatant was removed and dried cell pellets were stored at −80 °C. Each experiment was carried out in three independent replicates.
The cell pellets were thawed at room temperature, resuspended in 500 μL of ultrapure water (Millipore Purification System, Merck, Millipore, Darmstadt, Germany), and sonicated for 2 min (2 s cycle, amplitude 20%) in a Q500 homogenizer (QSONICA Sonicators, Newton). Then, the homogenate was divided into three parts: 250 μL for the determination of malondialdehyde (MDA), 100 μL for each determination of nonprotein thiols (NP-SH) and disulfides (NP-SS-NP), and 10 μL for the Bradford protein assay.
The HepG2 cell homogenate obtained, as described in Section 2.6, was processed for the determination of intracellular NP-SH and NP-SS-NP, according to Muckova et al.[11] The samples were analyzed using the HPLC system described above equipped with an SPD 20-AV Prominence UV/vis detector. The analysis was carried out on a Phenomenex LUNA C18 column (150 mm × 3 mm, 3 μm, 100 Å) protected with a Security Cartridge (4 mm × 2 mm, Phenomenex, Torrance) at 30 °C and a constant flow rate of 0.330 mL/using the mobile phase consisting of 0.9% aqueous FA (A) and ACN (B) under gradient conditions: 0–1 min 12% B, 1.1–2 min 12–55% B, 2–7 min 55% B, 7.1 min 55% B, and 7.1–10 min 12% B. The detector was set at 326 nm and the sample injection volume was 20 μL.

[6] = reference not given; cited from earlier work
[7] = test system: AChE; details: in rat blood; read-out: IC50 (concentration required to inhibit AChE activity by 50%); cited from earlier work

| SMILES | increase of RONS (DCFH-DA probe) vs negative control ([1]; 1 h incubation) | increase of RONS (DCFH-DA probe) vs negative control ([1]; 4 h incubation) | increase of RONS (DCFH-DA probe) vs negative control ([1]; 24 h incubation) | increase of RONS (DHE probe) vs negative control ([2]; 4 h incubation) | increased production of ROS [3] | signs of oxidative stress (TBARS, superoxide dismutase activity) [4] | increase in NP-SS-NP levels vs untreated control ([5]; 1 h) | increase in NP-SS-NP levels vs untreated control ([5]; 4 h) | increase in NP-SS-NP levels vs untreated control ([5]; 24 h) | log P [6] | IC50 [7] | increase of RONS (DHE probe) vs negative control ([2]; 24 h incubation) |
| --- | --- | --- | --- | --- | --- | --- | --- | --- | --- | --- | --- | --- |
| NC(=O)c1cc[n+](CCCC[n+]2ccc(C=NO)cc2)cc1.[Br-].[Br-] [K048, 4-carbamoyl-1-(4-(4-((hydroxyimino)methyl)pyridin-1-ium-1-yl)butyl)pyridin-1-ium dibromide] | 146% | 193% | 115% | 25.8% | 25% | no signs of oxidative stress | 34.8% | 54.8% | 61.5% | −2.61 | ~643 µM |  |
| O/N=C/c1cc[n+](CCCC[n+]2ccc(/C=N/O)cc2)cc1 [K074, 1,1′-(butane-1,4-diyl)bis(4((hydroxyimino)methyl)pyridine-1-ium) dibromide] | 171% | 244% | 117% | 33.4% | 16% |  | 42.8% | 52.4% | 72.3% | −1.74 | ~66 µM | 42.8% |
